According to patent US20260226006A1, “INDOLE COMPOUND, PREPARATION METHOD THEREFOR AND USE THEREOF” (SUZHOU MERNA THERAPEUTICS CO. LTD, priority 2023, published 2026):

Key:
[1] = tested on: skin of hind limb toes of mice; assay: Kinase inhibitor-induced mouse models with hand-foot skin reaction (Example 24); format: in vivo, ICR mice; conditions: for expression level of cytokine IL-1β in skin tissues of hind limb toes / thickening of the epidermal layer and the stratum corneum in the skin tissues (pathological staining) / swelling of the toes caused by the modeling drugs: compound 2b 3% ointment topical or nicotinamide 100 mg/kg oral; for thickening of the epidermal layer and the stratum corneum in the skin tissues (pathological staining) / swelling of the toes caused by the modeling drugs: sorafenib or osimertinib model; for swelling of the toes caused by the modeling drugs: once daily 16 days; for degree of swelling of hind limb toes / epidermal layer and stratum corneum in skin tissues of hind limb toes (pathological staining): modeling drug oral for 14 days; for skin appearance of hind limb toes: modeling for 14 days, sorafenib 100 mg/kg or osimertinib 10 mg/kg oral
Excerpt: After adaptive feeding for 7 days, SPF-grade ICR mice (male, 5-6 weeks old, with a body weight of approximately 35 g) were randomly divided into groups, including a blank control group (6 mice), a sorafenib modeling group (6 mice), an osimertinib modeling group (6 mice), a sorafenib+compound 2b group (6 mice), an osimertinib+compound 2b group (6 mice), a sorafenib+nicotinamide group (6 mice), and an osimertinib+nicotinamide group (6 mice). The groups were respectively administered corresponding modeling drugs by oral gavage (sorafenib at 100 mg/kg and osimertinib at 10 mg/kg) once daily, and the blank control group was administered an equivalent volume of normal saline. After administration with the chemotherapeutic drugs for 2 weeks, the compound ointments (at a compound content of 3%) used in Example 22 were respectively applied topically in the groups or nicotinamide was orally administered (100 mg/kg) once daily continuously for 16 days.
Measurement of the degree of swelling of toes: The degree of swelling of hind limb toes of the mice was measured using a toe swelling tester (KW-7C, Nanjing Calvin Biotechnology Co., Ltd.) before administration with the modeling drugs, after administration with the modeling drugs for 2 weeks, and before sacrifice, respectively. Before measurement, ankle joints of hind paws of the mice were marked at same positions before administration, after administration for 2 weeks, and before sacrifice. During measurement, water was properly located at the same level as the marked positions, and numerical values were recorded after becoming stable.
Pathological staining of skin tissues: Skin tissue samples were selected from hind limb toes of the mice and placed in 4% paraformaldehyde for fixation at room temperature for 4 hours. Then, the tissues were taken out and rinsed with running water for several hours. The samples were subjected to dehydration treatment with 70%, 80%, and 90% ethanol solutions, followed by treatment with a mixed solution of equal amounts of absolute alcohol and xylene for 15 minutes, and then permeabilized twice with a xylene solution for 15 minutes each time until the samples became transparent. The samples were placed in a mixture of half xylene and half paraffin for soaking for 15 minutes, and then, paraffin I and paraffin II were added for wax penetration for one hour, respectively. After embedding with paraffin, the samples were sectioned, baked, dewaxed, and hydrated. Then, the hydrated sections were placed in a hematoxylin solution (ZSGB-BIO, article No. 23041001) for staining for 3 minutes, and a differentiation solution of hydrochloric acid in ethanol was added for differentiation for 15 seconds. After rinsing with water, a Scott bluing solution (Servicebio, article No. 20230801) was added for bluing for 15 seconds. After rinsing with running water, the sections were stained with an eosin solution (Solarbio, article No. 33535) for 3 minutes, rinsed with running water, dehydrated, permeabilized, sealed, and inspected under a microscope.
Immunohistochemical staining: After baking, dewaxing, and hydration, paraffin sections of skin tissues of hind limb toes of the mice were subjected to antigen retrieval using a 0.2 M citric acid buffer solution (containing 1.534 g of citric acid, 3.1 g of sodium citrate, and 100 mL of distilled water, pH 4.7). Endogenous […] was removed using 3% hydrogen peroxide (Shandong Annjet High-Tech Disinfection Technology Co., Ltd., article No. 20290902), and the sections were incubated at room temperature for 10 minutes and then fully rinsed with a PBS buffer solution (containing 8 g of NaCl, 0.2 g of KCl, 1.44 g of Na2HPO4, and 1 M HCl, pH 7.4). The sections were permeabilized with 0.5% Triron-X-100 (AmyJet Scientific, article No. A-CSH436-100 mL), respectively permeabilized with mouse anti-IL-1β and rabbit IL-8 for 10 minutes, and not permeabilized with rabbit anti-IL-6. […]

THP-1 cells = assay: m6A methylation level of THP-1 cells by LC-MS (Example 19); format: cell-based; conditions: 24 hours
Experimental: 1*10^8 THP-1 cells were seeded in culture dishes, into which 400 nM compound 1, 4 nM and 400 nM compounds 2b, 5a, and 8b, 4 nM and 4 μM nicotinamide, and 5 μM m6A methylase inhibitor UZH2 were added, respectively. The cells were cultured in an incubator containing 5% CO2 at 37° C. for 24 hours. After culture media were discarded, the cells were washed with PBS and centrifuged to discard the supernatant. 400 μL of an RLT cell lysis buffer was added, and the cells were stored at −80° C. A portion of samples were selected, into which 400 μL of 70% ethanol was added and evenly stirred. 700 μL of a sample was transferred to an RNeasy centrifugation column and centrifuged for 15 seconds (8,000 g, 25° C.). Then, 700 μL of an RW1 buffer solution was added and centrifuged for 15 seconds (8,000 g, 25° C.), followed by the addition of 500 μL of an RPE buffer solution and centrifugation for 16 seconds (8,000 g, 25° C.). The above steps were repeated twice, followed by centrifugation for 2 minutes to completely remove the eluent. 30 μL of nuclease-free water was added to a chromatographic column, and the cells were incubated for 5 minutes and then centrifuged for 2 minutes (12,000 g, 25° C.). The steps were repeated 3 times. 2 μL of an RNA sample was selected and dissolved in 98 μL of a 10 mM Tris buffer solution, and the absorbance at 260 nm was measured using a Nanodrop to determine the RNA concentration.
50 μg of total RNA was selected and dissolved in 100 μL of nuclease-free water. Oligo (dT) magnetic beads were resuspended, 50 μL of the magnetic beads were transferred to a 1.5 mL test tube, 500 μL of a binding buffer solution was added, the mixture was allowed to stand, and the supernatant was removed. 100 μL of an RNA sample was added to 200 μL of a magnetic bead suspension for mixing, the mixture was stirred and incubated in a Thermomixer at 25° C. for 5 minutes, the supernatant was discarded, and then 200 μL of a washing buffer solution was added. The steps were repeated 2 times, and then centrifugation was performed for 10 seconds (2,000 g, 25° C.). 50 μL of an elution buffer solution was added and evenly mixed, the mixture was heated to 75° C., the supernatant was transferred to a new 1.5 mL test tube and purified using an RNA Clean & Concentrator kit, and the RNA concentration was determined.
20 μL (approximately 200 ng) of an mRNA sample and 20 μL of a Nuclease P1 digestion premix (including 0.5 μL of 2 unit/μL Nuclease P1, 0.4 μL of 5 M NaCl, 2 μL of 0.1 M ZnCl2, and 17.1 μL of PCR-grade water) were added into each test tube, and the mixture was stirred and incubated in a Thermomixer at 37° C. for 2 hours. 2 μL of a 2 M NH4HCO3 solution and 1 unit of alkaline phosphatase were added, and the mixture was stirred and incubated in a Thermomixer at 37° C. for 2 hours. 1 μL of a 1.2 M HCl neutralization solution was added, and centrifugation was performed for 30 minutes (16,000 g, 4° C.). 20 μL of the supernatant was collected, an m6A methylation fragment was analyzed by LC-MS, and the m6A inhibition rate was calculated.
m6A inhibition rate (%)=(measured ion peak area−blank control)/(positive ion peak area−blank control)*100.

Row | SMILES | expression level of cytokine IL-1β in skin tissues of hind limb toes ([1]; osimertinib model) | expression level of cytokine IL-1β in skin tissues of hind limb toes ([1]; sorafenib model) | thickening of the epidermal layer and the stratum corneum in the skin tissues (pathological staining) [1] | swelling of the toes caused by the modeling drugs [1] | m6A methylation level of mRNA of the cells (THP-1 cells; 4 nM and 400 nM) | degree of swelling of hind limb toes [1] | epidermal layer and stratum corneum in skin tissues of hind limb toes (pathological staining) [1] | skin appearance of hind limb toes [1] | further results
1 | NC(=O)[C@H]1CCCc2c1[nH]c1ccc(Cl)cc21 [Compound 2b, (S)-6-chloro-2,3,4,9-tetrahydro-1H-carbazole-1-carboxamide] | significantly decrease | significantly decrease | effectively alleviate | effectively alleviate | significantly inhibit |  |  |  | m6A inhibition activity (THP-1 cells; 400 nM): comparable to that of the m6A methylase inhibitor UZH2 at a concentration of 5 μM
2 | CNC(=O)c1cc(Oc2ccc(NC(=O)Nc3ccc(Cl)c(C(F)(F)F)c3)cc2)ccn1 [Sorafenib, sorafenib, reference compound] |  |  |  |  |  | significant swelling | significantly thickened | obvious erythema and rhagades | cytokine IL-1β in skin tissues of hind limb toes (immunohistochemistry) ([1]; sorafenib oral for 14 days): significantly increased
3 | CN1CC[C@H](C(N)=O)c2[nH]c3ccc(Cl)cc3c21 [Compound 8b, (S)-8-chloro-1-methyl-2,3,4,5-tetrahydropyrido[3,2-b]indole-4-carboxamide] |  |  |  |  | significantly inhibit |  |  |  | 
4 | C=CC(=O)Nc1cc(Nc2nccc(-c3cn(C)c4ccccc34)n2)c(OC)cc1N(C)CCN(C)C [Osimertinib, osimertinib, reference compound] |  |  |  |  |  | significant swelling | significantly thickened | obvious erythema and rhagades | cytokine IL-1β in skin tissues of hind limb toes (immunohistochemistry) ([1]; osimertinib oral for 14 days): significantly increased
5 | NC(=O)C1c2[nH]c3ccc(Cl)cc3c2C2CCC1C2 [Compound 5a, (S)-2-chloro-5,6,7,8,9,10-hexahydro-7,10-methanocyclohepta[b]indole-6-carboxamide] |  |  |  |  | significantly inhibit |  |  |  | 
6 | NC(=O)c1cccnc1 [Nicotinamide, nicotinamide] | does not have a significant impact | does not have a significant impact | does not significantly alleviate | not observed that oral administration of the nicotinamide at 100 mg/kg significantly alleviates the swelling |  |  |  |  | m6A methylation level of mRNA of the cells (THP-1 cells; 4 nM and 4 μM): no inhibitory effect
